Measurements published in patent publication US10202370B2, “Benzimidazole derivatives as selective proteine kinase inhibitors” (AB SCIENCE, priority 2013, dated 2019).

Target: c-kit WT (Homo sapiens (Human), UniProt P10721)
Assay: Proliferation assay (CellTiter-Blue) on BaF3 Kit WT cell line
Format: cell-based
Details: BaF3 Kit WT cell line (murine Ba/F3 expressing Human Kit WT, with murine SCF), 48 hours
Method: Procedures of C-Kit WT Inhibition Assays:
Colorimetric cell proliferation and viability assay (reagent CellTiter-Blue purchased from Promega cat N°G8081) was performed on BaF3 Kit WT cell line.
A total of 2.10^4 cells/50 μl were seeded per well of a 96-wells plate. Treatment was initiated by addition of a 2× drug solution of ½ serial dilutions ranging from 0 to 10 μM. After incubating for 48 hours at 37° C., 10 μl of a ½ dilution of CellTiter-Blue reagent was added to each well and the plates were returned to the incubator for an additional 4 hours. The fluorescence intensity from the CellTiter-Blue reagent is proportional to the number of viable cells and data were recorded (544Ex/590Em) using a POLARstar OMEGA microplate reader (BMG LabteckSarl). A background control without cells was used as a blank. The positive control of the assay corresponds to the cell proliferation obtained in the absence of drug treatment (100% proliferation). Each sample was done in triplicate. The results were expressed as a percentage of the proliferation obtained in absence of treatment. All drugs were prepared as 20 mM stock solutions in DMSO and conserved at −80° C. Drug dilutions were made fresh in medium before each experiment. A DMSO control was included in each experiment.
The cell line expressing Human Kit WT was derived from the murine IL3-dependent Ba/F3 proB lymphoid cells. Ba/F3 Kit WT cells were maintained in RPMI medium containing 10% FCS and supplemented with 250 ng/ml of recombinant murine SCF.

Sequence of c-kit WT (P10721 26-976): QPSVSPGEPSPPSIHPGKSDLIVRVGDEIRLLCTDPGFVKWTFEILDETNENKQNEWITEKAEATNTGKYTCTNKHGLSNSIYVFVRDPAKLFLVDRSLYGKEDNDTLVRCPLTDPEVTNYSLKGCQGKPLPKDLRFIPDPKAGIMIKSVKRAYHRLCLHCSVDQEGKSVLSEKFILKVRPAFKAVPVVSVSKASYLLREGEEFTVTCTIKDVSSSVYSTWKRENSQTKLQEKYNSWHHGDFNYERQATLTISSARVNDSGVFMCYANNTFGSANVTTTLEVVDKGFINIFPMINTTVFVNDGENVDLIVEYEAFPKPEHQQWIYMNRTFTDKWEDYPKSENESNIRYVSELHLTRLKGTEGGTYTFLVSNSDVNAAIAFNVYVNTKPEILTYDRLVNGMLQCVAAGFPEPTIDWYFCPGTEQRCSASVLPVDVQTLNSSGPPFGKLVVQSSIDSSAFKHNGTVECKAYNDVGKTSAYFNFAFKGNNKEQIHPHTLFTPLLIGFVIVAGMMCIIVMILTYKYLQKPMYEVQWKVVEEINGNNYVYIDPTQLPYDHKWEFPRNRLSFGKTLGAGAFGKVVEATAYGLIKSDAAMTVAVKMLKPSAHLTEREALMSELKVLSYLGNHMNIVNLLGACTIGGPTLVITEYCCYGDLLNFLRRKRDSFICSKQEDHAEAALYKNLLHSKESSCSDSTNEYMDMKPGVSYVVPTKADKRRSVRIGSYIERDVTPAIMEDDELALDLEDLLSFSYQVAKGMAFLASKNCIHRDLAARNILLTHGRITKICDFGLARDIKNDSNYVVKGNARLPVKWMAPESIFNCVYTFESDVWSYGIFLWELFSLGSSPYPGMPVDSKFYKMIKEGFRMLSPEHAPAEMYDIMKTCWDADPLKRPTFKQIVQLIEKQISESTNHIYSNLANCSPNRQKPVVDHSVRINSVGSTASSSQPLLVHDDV

| IC50 | SMILES |
| --- | --- |
| ≤ 1 µM | Cc1cc2nc(-c3cc(F)cc(C(F)(F)F)c3)[nH]c2cc1Nc1nc(-c2cccnc2)cs1 [Compound 058, [2-(3-Fluoro-5-trifluoromethyl-phenyl)-6-methyl-3H-benzoimidazol-5-yl]-(4-pyridin-3-yl-thiazol-2-yl)-amine] |
| 1 to 10 µM | Cc1cc2nc(-c3cc(C(C)(C)C)ccc3OCCN(C)C)[nH]c2cc1Nc1nccc(-c2cccnc2)n1 [Compound 036, {2-[5-tert-Butyl-2-(2-dimethylamino-ethoxy)-phenyl]-6-methyl-3H-benzoimidazol-5-yl}-(4-pyridin-3-yl-pyrimidin-2-yl)-amine] |
| ≤ 1 µM | Cc1cc2c(cc1Nc1nc(-c3ccncc3)cs1)nc(-c1cc(F)cc(C(F)(F)F)c1)n2C [Compound 147, [2-(3-Fluoro-5-trifluoromethyl-phenyl)-1,6-dimethyl-1H-benzoimidazol-5-yl]-(4-pyridin-4-yl-thiazol-2-yl)-amine] |
| ≤ 1 µM | Cc1cc2c(cc1Nc1nc(-c3ccncc3)cs1)nc(-c1cccc(C(F)F)c1)n2C [Compound 081, [2-(3-Difluoromethyl-phenyl)-1,6-dimethyl-1H-benzoimidazol-5-yl]-(4-pyridin-4-yl-thiazol-2-yl)-amine] |
| 1 to 10 µM | Cc1cc2nc(-c3ccc(CN4CCN(C)CC4)cc3)[nH]c2cc1Nc1nc(-c2ccncc2)cs1 [Compound 048, {6-Methyl-2-[4-(4-methyl-piperazin-1-ylmethyl)-phenyl]-1H-benzoimidazol-5-yl}-(4-pyridin-4-yl-thiazol-2-yl)-amine] |
| 1 to 10 µM | Cc1cc2nc(-c3cccc(CN4CCN(C)CC4)c3)[nH]c2cc1Nc1nc(-c2cccnc2)cs1 [Compound 044, {6-Methyl-2-[3-(4-methyl-piperazin-1-ylmethyl)-phenyl]-1H-benzoimidazol-5-yl}-(4-pyridin-3-yl-thiazol-2-yl)-amine] |
| 1 to 10 µM | Cc1cc2nc(-c3ccc(C(F)(F)F)cc3)[nH]c2cc1Nc1nccc(-c2cccnc2)n1 [Compound 027, [6-Methyl-2-(4-trifluoromethyl-phenyl)-3H-benzoimidazol-5-yl]-(4-pyridin-3-yl-pyrimidin-2-yl)-amine] |
| ≤ 1 µM | Cc1cccc(-c2nc3cc(Nc4nc(-c5ccnc(Cl)c5)cs4)c(C)cc3[nH]2)c1 [Compound 107, [4-(2-Chloro-pyridin-4-yl)-thiazol-2-yl]-(6-methyl-2-m-tolyl-1H-benzoimidazol-5-yl)-amine] |
| 1 to 10 µM | Cc1cc2c(cc1Nc1nc(-c3ccncc3)cs1)nc(-c1ccc(CN3CCN(C)CC3)cc1)n2C [Compound 099, {1,6-Dimethyl-2-[4-(4-methyl-piperazin-1-ylmethyl)-phenyl]-1H-benzoimidazol-5-yl}-(4-pyridin-4-yl-thiazol-2-yl)-amine] |
| ≤ 1 µM | Cc1cc2c(cc1Nc1nc(-c3cccnc3)cs1)nc(-c1cc(F)cc(C(F)(F)F)c1)n2C [Compound 148, [2-(3-Fluoro-5-trifluoromethyl-phenyl)-1,6-dimethyl-1H-benzoimidazol-5-yl]-(4-pyridin-3-yl-thiazol-2-yl)-amine] |
| ≤ 1 µM | Cc1cc2[nH]c(-c3cccc(C(F)(F)F)c3)nc2cc1Nc1nc(-c2cccc(C#N)c2)cs1 [Compound 130, 3-{2-[6-Methyl-2-(3-trifluoromethyl-phenyl)-1H-benzoimidazol-5-ylamino]-thiazol-4-yl}-benzonitrile] |
| 1 to 10 µM | Cc1cc2nc(-c3cccnc3)[nH]c2cc1Nc1nccc(-c2cccnc2)n1 [Compound 014, (6-Methyl-2-pyridin-3-yl-3H-benzoimidazol-5-yl)-(4-pyridin-3-yl-pyrimidin-2-yl)-amine] |
| ≤ 1 µM | Cc1cc2c(cc1Nc1nc(-c3cccnc3)cs1)nc(-c1ccc(C(F)F)cc1)n2C [Compound 093, [2-(4-Difluoromethyl-phenyl)-1,6-dimethyl-1H-benzoimidazol-5-yl]-(4-pyridin-3-yl-thiazol-2-yl)-amine] |
| ≤ 1 µM | COc1cccc(-c2nc3cc(Nc4nc(-c5ccncc5)cs4)c(C)cc3n2C)c1 [Compound 125, [2-(3-Methoxy-phenyl)-1,6-dimethyl-1H-benzoimidazol-5-yl]-(4-pyridin-4-yl-thiazol-2-yl)-amine] |
